According to ChEMBL document CHEMBL3351759, “Synthesis and antitumor activity of novel 3-oxo-23-hydroxybetulinic acid derivatives” (Eur J Med Chem, 2014):

Key:
Mus musculus [1] = experiment: Toxicity in mouse […] cells transplanted ICR mouse assessed as mouse survival at 30 mg/kg, ip administered 7 days post tumor transplantation; assay type: organism-based; parameters: dose 30 mg/kg, route intraperitoneal; conditions: in vivo, 168 h
B16 [2] = experiment: Antiproliferative activity against mouse B16 cells after 72 hrs MTT assay; assay type: functional, cell-based; conditions: B16, 72 h
HeLa = experiment: Antiproliferative activity against human HeLa cells after 72 hrs MTT assay; assay type: functional, cell-based
Mus musculus [3] = experiment: Toxicity in […] H22 cells transplanted ICR mouse assessed as mouse survival at 30 mg/kg, ip administered 7 days post tumor transplantation; assay type: organism-based; parameters: dose 30 mg/kg, route intraperitoneal; conditions: in vivo, 168 h
H22 [4] = experiment: Antitumor activity against […] H22 cells transplanted in ICR mouse assessed as tumor growth inhibition at 30 mg/kg, ip administered 7 days post tumor transplantation; assay type: functional; conditions: 168 h, route intraperitoneal
Mus musculus [5] = experiment: Toxicity in […] H22 cells transplanted ICR mouse assessed as mouse body weight at 30 mg/kg, ip administered 7 days post tumor transplantation (reference value: 18.4 to 18.9g); assay type: organism-based; parameters: dose 30 mg/kg, route intraperitoneal; conditions: in vivo, 168 h
[6] = Antiproliferative activity against human Bel7402 cells after 72 hrs MTT assay; assay type: functional, cell-based; conditions: Bel-7402, 72 h
[7] = Antiproliferative activity against human SF763 cells after 72 hrs MTT assay; assay type: functional, cell-based; conditions: SF763, 72 h
Mus musculus [8] = experiment: Toxicity in mouse […] cells transplanted ICR mouse assessed as mouse body weight at 30 mg/kg, iv administered 7 days post tumor transplantation (reference value: 18.3 to 18.6g); assay type: organism-based; parameters: dose 30 mg/kg, route intravenous; conditions: in vivo, 168 h
[9] = Antiproliferative activity against human HL60 cells after 72 hrs MTT assay; assay type: functional, cell-based; conditions: HL-60, 72 h
B16 [10] = experiment: Antitumor activity against mouse B16 cells transplanted in ICR mouse assessed as tumor growth inhibition at 30 mg/kg, ip administered 7 days post tumor transplantation; assay type: functional; conditions: 168 h, route intraperitoneal
H22 [11] = experiment: Antitumor activity against human H22 cells transplanted in ICR mouse assessed as tumor growth inhibition at 30 mg/kg, iv administered 7 days post tumor transplantation; conditions: 168 h, read-out: INH
Mus musculus [12] = experiment: Toxicity in mouse B6 cells transplanted ICR mouse assessed as mouse body weight at 30 mg/kg, iv administered 7 days post tumor transplantation (reference value: 18.2 +/- 0.5g); assay type: organism-based; parameters: dose 30 mg/kg, route intravenous; conditions: in vivo, 168 h
B16 [13] = experiment: Antitumor activity against mouse B16 cells transplanted in ICR mouse assessed as tumor growth inhibition at 30 mg/kg, iv administered 7 days post tumor transplantation; assay type: functional; conditions: B16, 168 h
Mus musculus [14] = experiment: Toxicity in mouse […] cells transplanted ICR mouse assessed as mouse survival at 30 mg/kg, iv administered 7 days post tumor transplantation; assay type: organism-based; parameters: dose 30 mg/kg, route intravenous; conditions: in vivo, 168 h

Row | Compound | Activity (Mus musculus [1]) | IC50 (B16 [2]) [µM] | IC50 (HeLa) [µM] | Activity (Mus musculus [3]) | inhibition in vivo at 30 mg/kg (H22 [4]) [%] | Activity (Mus musculus [5]) [g] | IC50 [6] [µM] | IC50 [7] [µM] | Activity (Mus musculus [8]) [g] | IC50 [9] [µM] | inhibition in vivo at 30 mg/kg (B16 [10]) [%] | inhibition in vivo at 30 mg/kg (H22 [11]) [%] | Activity (Mus musculus [12]) [g] | inhibition in vivo at 30 mg/kg (B16 [13]) [%] | Activity (Mus musculus [14])
1 | C=C(C)[C@@H]1CC[C@]2(C(=O)O)CC[C@]3(C)[C@H](CC[C@@H]4[C@@]5(C)CC[C@H](O)[C@@](C)(CO)[C@@H]5CC[C@]43C)[C@@H]12 | Non-toxic | 29.9 | 52.4 | Non-toxic | 27.8 | 26.1 | 39.7 | 43.4 | 26.7 | 45.1 | 32.4 | – | – | – | –
2 | C=C(C)[C@@H]1CC[C@]2(C(=O)NCCN)CC[C@]3(C)[C@H](CC[C@@H]4[C@@]5(C)CCC(=O)[C@@](C)(COC(C)=O)[C@@H]5CC[C@]43C)[C@@H]12 | Non-toxic | 5.58 | 10.6 | Non-toxic | 51.8 | 27.2 | 7.22 | 6.23 | 26.9 | 8.64 | 62.7 | – | – | – | –
3 | C=C(C)[C@@H]1CC[C@]2(C(=O)O)CC[C@]3(C)[C@H](CC[C@@H]4[C@@]5(C)CCC(=O)[C@@](C)(CO)[C@@H]5CC[C@]43C)[C@@H]12 | Non-toxic | 20.6 | 39.2 | Non-toxic | 39.5 | 26.8 | 33.8 | 29.3 | 27.3 | 36.1 | 48.1 | – | – | – | –
4 | O=P1(N(CCCl)CCCl)NCCCO1 (configuration not stated) [CYCLOPHOSPHAMIDE ANHYDROUS] | – | – | – | – | – | – | – | – | – | – | – | 53.7 | – | – | –
5 | O=c1[nH]cc(F)c(=O)[nH]1 [FLUOROURACIL] | – | – | – | – | – | – | – | – | – | – | – | – | 26.2 | 70.3 | Non-toxic
